SMILES strings stand for the structures. Values joined by “and” are separate entries in the source; they are usually repeats but may differ in a detail not shown here. Equal entries are not always repeated.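 Where inhibition never reached the appropriate level, the endpoint shown equals the highest concentration tested. Otherwise, values were interpolated linearly from a five-concentration, 48-hour dose response in 96-well plates. Here, GI50 denotes the concentration required for 50% inhibition of growth. TGI marks complete inhibition of growth.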

Among the data in PubChem BioAssay (NCI) are GI50 and TGI values, retold here.

Holding throughout (assay): inhibition of tumour cell growth, NCI panel, 48 h
The test system of assay [1] is BT-549 breast.
The subject of assay [2] is DU-145 prostate.
The subject of assay [3] is EKVX NSCLC.
In assay [4] the test system is HCC-2998 colon.
For assay [5], the system named is NCI-H226 lung.
In assay [6] the test system is NCI-H23 lung.
Assay [7] concerns NCI-H522 lung.
Assay [8] has as its system OVCAR-4 ovarian.
Assay [9] concerns OVCAR-5 ovarian.
Assay [10] relates to RXF 393 renal.

`O=c1c(O)c(-c2ccc(O)c(O)c2)oc2cc(O)cc(O)c12`: the GI50 in assay [1] was 13.3 µM; in assay [2], 20 µM; in assay [3], 23.9 µM; in [4], 16 µM; in assay [5], 16.3 µM; in assay [6], 9.65 µM. The GI50 in [7] was 5.54 µM; in [8], 33.3 µM; in assay [9], 30.2 µM; in assay [10], 11.7 µM. The TGI in assay [1] was 77.7 µM; in assay [2], greater than 100 µM; in assay [3] it was greater than 100 µM; in assay [4], 51 µM and > 100 µM; in [5] it was 68.5 µM; in [6], 50 µM. Also, the TGI in assay [7] is greater than 100 µM; in assay [8] it was greater than 100 µM; in assay [9] it was greater than 100 µM; in assay [10], 50.9 µM and > 100 µM.
`CC[C@H](CO)Nc1nc(NCc2ccccc2)c2ncn(C(C)C)c2n1`: the TGI in assay [1] is 45.3 µM; in assay [2] it was greater than 100 µM; in assay [3] it was 44.1 µM; in assay [4], greater than 75.2 µM; in assay [5], greater than 93.7 µM; in [6], 41.9 µM. Further, the TGI in assay [7] is 57.8 µM; in assay [8] it was greater than 88.5 µM; in assay [9] it was greater than 96.4 µM; in [10] it was greater than 52.4 µM. Besides, the GI50 in assay [2] is 19.9 µM; in [4], 24.7 µM; in assay [8], 26.8 µM; in [9], 28 µM.
On to `Cn1cc(-c2csc(-c3cn(CCCN4CCCCC4)c4ccccc34)n2)c2cccnc21`, for which the GI50 in assay [1] is 1.56 µM; in assay [2] it was 1.75 µM; in [3], 16.3 µM; in assay [4] it was 1.68 µM; in assay [5], 2.55 µM; in assay [6] it was 1.82 µM. The GI50 in [7] was 17.8 µM; in assay [8], 2.02 µM; in [9] it was 1.63 µM; in assay [10], 1.59 µM. The TGI in [1] worked out at 2.94 µM; in assay [2], 3.17 µM; in [3] it was 34.5 µM; in [4] it was 3.23 µM; in [5], 7.62 µM; in assay [6], 3.62 µM. The TGI came out at 41 µM in assay [7], 4.07 µM in assay [8], 3.13 µM in [9] and 3.14 µM in [10].
As to `Cc1ccc(C(=O)NC2CCC2)cc1-c1ccc(C(=O)NCC2CC2)cc1`, the GI50 in assay [1], in assay [2], in assay [3], in [4], in assay [5] and in [6] was greater than 25 µM throughout. The GI50 in assay [7], in assay [8], in assay [9] and in assay [10] was greater than 25 µM in each case. For the same compound, the TGI in [1], in assay [2], in assay [3], in [4], in assay [5] and in assay [6] was greater than 25 µM in each case. For the same compound, the TGI in assay [7], in assay [8], in assay [9] and in assay [10] was greater than 25 µM each time.
In the case of `Cc1[nH]c(=O)nc(Nc2ccc(Cl)cc2)c1C(=O)N1CCN(CCO)CC1`, the GI50 was 53.8 µM in assay [1]; greater than 100 µM in assay [2]; greater than 100 µM in [3]; greater than 100 µM in [4]; greater than 100 µM in assay [5]; 76 µM in assay [6]. The GI50 in assay [7] is 59.8 µM; in [8] it was greater than 100 µM; in assay [9] it was greater than 100 µM; in [10], 24.4 µM. For the same compound, the TGI in [1], in assay [2], in assay [3], in assay [4], in [5] and in assay [6] was greater than 100 µM in each case. In addition, the TGI in [7] is greater than 100 µM; in assay [8], greater than 100 µM; in assay [9], greater than 100 µM; in assay [10] it was 76.8 µM.
As to `O=C1c2ccc3c4c(ccc(c24)C(=O)N1CCCNCc1ccccc1Cl)C(=O)N(CCCNCc1ccccc1Cl)C3=O`, the GI50 in [1] was 0.87 µM; in assay [2], 0.261 µM; in assay [3] it was 0.481 µM; in [4] it was 0.191 µM; in assay [5] it was 0.659 µM; in assay [6] it was 0.217 µM. The GI50 in assay [7] is 0.293 µM; in [8], 0.0891 µM; in [9] it was 0.592 µM; in [10] it was 0.121 µM. The TGI turned out to be 1.8 µM in [1]; 0.86 µM in [2]; 1.16 µM in assay [3]; 0.651 µM in [4]; 1.49 µM in assay [5]; 0.86 µM in assay [6]. For the same compound, the TGI in [7] is 0.974 µM; in [8], 0.182 µM; in [9], 1.67 µM; in assay [10] it was 0.366 µM.
For `COC(=O)Nc1nc2ccc(Oc3cccc(NC(=O)Nc4cc(C(F)(F)F)ccc4F)c3)cc2[nH]1`, the GI50 in assay [1] was 23 µM; in assay [2], greater than 25 µM; in assay [3] it was greater than 19.5 µM; in [4], 13.2 µM; in assay [5], greater than 15.3 µM; in assay [6], 11.3 µM. In addition, the GI50 in assay [7] was 5.73 µM; in assay [8], 17.6 µM; in assay [9] it was greater than 22.5 µM; in assay [10], 10.4 µM. Further, the TGI in [1], in [2], in assay [3], in assay [4], in assay [5] and in assay [6] was greater than 25 µM in each case. In addition, the TGI in assay [7] is 20.6 µM; in assay [8], greater than 25 µM; in assay [9] it was greater than 25 µM; in assay [10], greater than 25 µM.
In the case of `COc1ccc(N(/C=C/C(=O)C(F)(F)F)CC(=O)c2ccc(F)cc2)cc1`, the GI50 in assay [1] was 30.4 µM; in [2], 36.2 µM; in assay [3], 25.4 µM; in assay [4], 21.4 µM; in assay [5], 12.1 µM; in assay [6] it was 30.1 µM. The GI50 in [7] was 18.7 µM; in assay [8], 45.3 µM; in assay [9] it was 34.1 µM; in [10], 28.8 µM. For the same compound, the TGI in assay [1] is greater than 100 µM; in [2], greater than 100 µM; in [3] it was greater than 100 µM; in [4] it was 38.9 µM; in assay [5], 33.3 µM; in assay [6], 84.9 µM. The TGI in assay [7] was 36.9 µM; in assay [8] it was greater than 100 µM; in assay [9], 93.3 µM; in [10], 77.4 µM.
For `CC(=O)[O][Sn]([CH2]c1ccccc1)([CH2]c1ccccc1)[CH2]c1ccccc1`, the GI50 in assay [1] is greater than 10 µM; in assay [2] it was greater than 10 µM; in [3], greater than 5.53 µM; in assay [4] it was greater than 6.73 µM; in [5], greater than 10 µM; in assay [6], greater than 5.98 µM. Also, the GI50 in [7] is greater than 3.86 µM; in assay [8], greater than 4.36 µM; in assay [9] it was greater than 10 µM; in assay [10] it was 3.98 µM. Also, the TGI is greater than 10 µM in [1]; greater than 10 µM in assay [2]; greater than 6.88 µM in assay [3]; greater than 10 µM in assay [4]; greater than 10 µM in assay [5]; greater than 7.83 µM in assay [6]. Further, the TGI in assay [7] was greater than 7.23 µM; in assay [8] it was greater than 6.02 µM; in [9], greater than 10 µM; in assay [10], greater than 4.64 µM.
On to `Cc1cnc(CNC(=O)c2c(=O)c3ccc(N4CCCN(C)CC4)nc3n3c2sc2ccccc23)cn1`, for which the GI50 is 12.6 µM in assay [1]; 1.03 µM in assay [2]; 9.14 µM in assay [3]; 2.72 µM in assay [4]; 7.44 µM in assay [5]; 0.922 µM in assay [6]. In addition, the GI50 in [7] was 5.94 µM; in assay [8], 1.4 µM; in [9], 13.2 µM; in [10], 3.39 µM. The TGI in [1] is 28.4 µM; in [2], 6.29 µM; in assay [3] it was 23.2 µM; in assay [4], 21.3 µM; in assay [5], 30.8 µM; in assay [6], 6.1 µM. The TGI in assay [7] amounted to 27.2 µM; in assay [8], 10.3 µM; in assay [9] it was 28.9 µM; in assay [10], 18.9 µM.
With `CN1CCc2[nH]nc(-c3n[nH]c4c3CN(C)CC4)c2C1`, the TGI in assay [1], in [2], in [3], in assay [4], in assay [5] and in assay [6] was greater than 100 µM each time. Moreover, the TGI in assay [7], in [8], in assay [9] and in assay [10] was greater than 100 µM throughout.
`COc1cc(OC)c(C(=O)/C=C/c2cccc(C#N)c2)c(OC)c1`: the GI50 in assay [1] is 0.611 µM; in assay [2], 1.47 µM; in assay [3], 1.37 µM; in assay [4], 2.17 µM; in assay [5], 1.28 µM; in assay [6], 1.21 µM. Also, the GI50 in assay [7] was 0.992 µM; in [8], 2.03 µM; in assay [9] it was 2.26 µM; in assay [10], 0.797 µM. In addition, the TGI was 2.5 µM in assay [1]; 6.37 µM in assay [2]; 5.32 µM in assay [3]; 7.34 µM in assay [4]; 4.56 µM in assay [5]; 4.59 µM in assay [6]. For the same compound, the TGI in assay [7] was determined as 2.94 µM; in [8], 10 µM; in assay [9], 7.95 µM; in assay [10], 2.05 µM.
On to `CC1=C(CCC(C)NCc2ccc(OCCCN3CCCCC3)cc2)C(C)(C)CCC1` (centres undefined), for which the GI50 in assay [1] was 2.08 µM; in assay [2], 1.85 µM; in assay [3], 1.61 µM; in assay [4], 0.232 µM; in assay [5], 3.82 µM; in [6], 1.73 µM. In addition, the GI50 is 1.45 µM in [7], 1.99 µM in [8], 1.91 µM in assay [9] and 1.6 µM in assay [10]. Further, the TGI in assay [1] came out at 3.89 µM; in assay [2], 4.17 µM; in assay [3], 3.94 µM; in [4], 0.612 µM; in assay [5] it was 16.5 µM; in assay [6], 3.82 µM. Also, the TGI in assay [7] was 3.21 µM; in assay [8], 5.5 µM; in assay [9], 4.11 µM; in assay [10], 3.06 µM.
With `O=[N+]([O-])c1ccc(N=Nc2ccc(O)c3ccccc23)cc1`, the GI50 in assay [1] was 5.07 µM; in assay [2], 6.66 µM; in [3] it was 7.44 µM; in assay [4] it was 10.3 µM; in assay [5] it was 26.3 µM; in assay [6], 1.79 µM. Further, the GI50 in [7] was 2.23 µM; in [8], 2.83 µM; in assay [9], 14.4 µM; in assay [10], 4.87 µM. The TGI was 46.7 µM in assay [1]; greater than 100 µM in assay [2]; greater than 100 µM in assay [3]; greater than 100 µM in [4]; greater than 100 µM in [5]; 6.88 µM in assay [6]. The TGI was 8.18 µM in [7], greater than 100 µM in assay [8], 75.8 µM in assay [9] and 39.4 µM in [10].
`O1[As]2O[As]3O[As]1O[As](O2)O3`: the GI50 was 0.278 µM in assay [1]; 2.08 µM in assay [2]; 1.54 µM in [3]; 1.65 µM in assay [4]; 1.01 µM in assay [5]; 0.733 µM in assay [6]. Moreover, the GI50 in [7] was 0.256 µM; in [8], 1.06 µM; in assay [9], 1.41 µM; in assay [10], 0.502 µM. Further, the TGI was 0.903 µM in assay [1]; 7.21 µM in assay [2]; 7.12 µM in [3]; 3.6 µM in [4]; 4.64 µM in assay [5]; 4.98 µM in [6]. Besides, the TGI in assay [7] was determined as 1.03 µM; in assay [8], 11.9 µM; in [9], 5.32 µM; in assay [10] it was 1.85 µM.
